Here are results for one compound from patent US20250197355A1, “TEAD Targeting Compounds and Methods Thereof” (Agency for Science, Technology and Research, priority 2022, published 2025).

Common to all, as to format: cell-based
Assay [1] deals with T1, TEAD4 binding to YAP and TAZ (Homo sapiens, UniProt Q15561).
T1 construct: expressed in transfected cells
In words: GFP-TRAP assay to pull down TEAD4 binders in U20S cells expressing GFP fused TEAD4. The conditions noted are these: U20S cells expressing GFP fused TEAD4, 10 uM. On the procedure: GFP-TRAP assay: To purify TEAD4 binders, GFP-Trap Magnetic Agarose (gtma-100) was used, and assay was performed strictly according to manufacturer's instructions. At the end of the assay, agarose beads were resuspended in 2×LDS lysis buffer, competing amount of DTT was added into it and samples were boiled for 3 minutes. Supernatants were collected and used for immunoblotting.
To determine whether CPD10 or 13 leads downregulation of TEAD4 binding to its transcriptional targets YAP and TAZ, U20S cells stably expressing GFP alone and GFP fused TEAD4 were either mock-treated or treated with indicated doses of CPD10. GFP-TRAP assay was performed to pull down TEAD4 binders, and immunoblotted. As one of the strong binders of the TEAD4, YAP/TAZ protein signal were detected in purified complex. […] The GFP blot indicating the GFP and GFP fused TEAD4 signal in whole cell lysates and purified protein samples (C).

Assay [2] has as its system U20S cells. Nature of the assay: Colony forming assay in U20S cells depleted of or overexpressing TEAD4. How it is done:
(§1) In colony forming assay, indicated cells were plated at 5,000 cells density in 2 ml of DMEM medium. TEAD4 depletion was performed by reverse transfection with 20 nM of Dharmacon smart pool NTsiRNA and TEAD4 siRNA in 2.5 ul of lipofectamine mixed with 25% of OPTIMEM. After 18 hrs of transfection, cells were either DMSO treated or treated with indicated compounds at different doses. After 48 hrs of the treatment cells were recovered in a fresh medium for 4 days. At the end of the experiment cells were Glutaraldehyde fixed and stained in crystal violet solution for 2 hrs. After washing, plates were scanned for image processing.
In line with proliferation assay we performed colony forming assay in U20S cells either depleted or overexpressing TEAD4. Cells stably expressing GFP and GFP fused TEAD4 were also included in this assay.

The target of assay [3] is T2, YAP-TEAD binding (Homo sapiens, UniProt Q15561).
T2 construct: Endogenous TEAD4 IP; endogenous in cells; host or cells: NCI-H226 mesothelioma cells
Nature of the assay: Endogenous TEAD4 immunoprecipitation in NCI-H226 mesothelioma cells. Conditions: 24 hrs, indicated concentrations. How it is done:
Evaluation of CPD10 and CPD13 in NCI-H226 mesothelioma cell line: Actively growing cells were either DMSO added or treated with indicated concentrations of CPD10 and CPD13 for 24 hrs. Cells were collected in ice-cold PBS and pellets were lysed in IP Lysis Buffer (25 mM Tris-HCl pH 7.4, 150 mM NaCl, 1 mM EDTA, 1% NP-40 and 5% glycerol and competing amount of protease inhibitor). Samples were lysed by sonication, BCA assay was performed and equal concentration of protein were added with TEAD4 antibody (3 ul). After overnight incubation in cold room, samples were added with anti-rabbit magnetic beads to trap the TEAD and binding complex for 2 hrs. Samples were washed 3 times and bound fraction were collected with the help of magnetic stand. Samples were added with 4×LDS, competing amount of DTT, and boiled for 3 minutes. Whole cell lysate (Input) and IP samples were resolved in 8% SDS-PAGE gel and immunoblotted with indicated antibodies.
(§2) Relative quantification of immunoblot signals were quantified with IMAGE J software. Actively growing cells were added with indicated concentrations of CPD10 and CPD13 and cells were collected after 24 hrs. RNA was extracted and cDNA was synthesized. Indicated primer pairs were used for RT-PCR. Relative gene expression was determined by using GAPDH amplification.

The target in assay [4] is T3, GFP-TEAD4 (Homo sapiens, UniProt Q15561).
T3 construct: expressed in transfected cells
In words: TEAD4 localization imaging in U20S cells stably expressing GFP-TEAD4. Conditions: 10 μM, 18 hrs. How it is done: Methods: U20S cells stably expressing GFP-TEAD4 were seeded at 50,000 cell densities onto glass cover slips in six well plates. Next day, cells were either DMSO treated or treated with indicated compounds at 10 μM concentrations. After 18 hrs of treatment cells were washed and fixed in 4% formaldehyde for 20 minutes. Blocking was done in 3% BSA dissolved in PBST for 1 hour. Cell were incubated with indicated antibodies for overnight in a cold room. Next day, after washing 3× in PBST samples were incubated with respective secondary antibodies for 45 minutes at room temperature. After washing nuclear staining was done with DAPI for 10 minutes. Coverslips were added onto glass slides with the help of mounting medium. After drying, cells were imaged at 63× objective and processed with ZEN x64 blue software.
Result: In DMSO treated control samples we observed very nuclear localized TEAD4 (green) signal, strongly imposed to the DAPI signal. Nuclear and cytoplasmic YAP and TAZ was observed either in DMSO or in compound treated cells.

The test system of assay [5] is NCI-H226 mesothelioma cells. In words: Colony forming assay in NCI-H226 mesothelioma cells. How it is done:
as §1
Colony forming assay was essentially performed as described in previous section.

Assay [6] relates to U20S cells. In words: Cell proliferation assay (Cell Titre Glow) in U20S cells. How it is done: Method: Indicated cells were plated at 3000 cells/80 μl in each well. TEAD4 depletion was performed by reverse transfection with 20 nM of Dharmacon smart pool NTsiRNA and TEAD4 siRNA in 0.25 ul of lipofectamine mixed with 25% of OPTIMEM. After 18 hrs of transfection, cells were recovered for 24 hrs in fresh DMEM medium. Cells were treated with indicated compounds at different doses. After 48 hrs of dosing cells were recovered in fresh medium for 3 days. Cell Titre Glow (CTG) assay was used.
U20S cells stably expressing GFP fused TEAD4 and GFP alone were treated with different doses of CPD10 and analysed for cellular proliferation. […] Further we used cell lines expressing higher level of TEAD4 and performed depletion experiment followed by comparative sensitivity analysis.

Assay [7] has as its system TEAD transcriptional target genes. Nature of the assay: RT-PCR profiling of YAP-TEAD transcriptional target genes in NCI-H226 cells. Conditions: 24 hrs. How it is done: as §2

T3 sequence (Q15561 whole entry): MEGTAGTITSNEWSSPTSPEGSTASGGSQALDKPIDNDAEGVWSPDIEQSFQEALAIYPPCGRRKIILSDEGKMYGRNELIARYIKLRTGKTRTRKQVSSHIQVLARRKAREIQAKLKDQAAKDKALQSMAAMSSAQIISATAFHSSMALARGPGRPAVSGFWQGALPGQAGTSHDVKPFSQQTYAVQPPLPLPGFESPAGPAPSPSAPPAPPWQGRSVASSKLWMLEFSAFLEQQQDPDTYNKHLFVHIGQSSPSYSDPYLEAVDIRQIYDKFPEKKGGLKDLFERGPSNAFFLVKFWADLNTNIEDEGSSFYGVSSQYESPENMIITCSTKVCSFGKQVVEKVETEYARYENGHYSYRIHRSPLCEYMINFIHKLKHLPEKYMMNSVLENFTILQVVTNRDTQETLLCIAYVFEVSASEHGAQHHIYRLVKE
T1 sequence (Q15561 whole entry): as above
T2 sequence (Q15561 whole entry): as above

For `C=CS(=O)(=O)CCC(=O)Nc1nn(-c2ccccc2)cc1C` [CPD10], the “YAP/TAZ binding to TEAD4 (GFP-TRAP pull down, immunoblot)” value in assay [1] is listed as “significantly reduced”. Moreover, the colony forming sensitivity result in assay [2] (U20S cells overexpressing GFP fused TEAD4, in comparison to GFP alone) is recorded as “very high sensitivity”; in assay [2] (U20S cells treated with control siRNA, unlike TEAD4 depleted cells, 2.5 μM), “very high sensitivity”; in assay [5], “strongly sensitizes”. Besides, in assay [2] (U20S cells, control siRNA vs TEAD4 siRNA), the “TEAD4 dependence of cellular sensitivity (siRNA depletion, colony forming)” value is given as “TEAD4 dependent”. In addition, in assay [3], the “YAP-TEAD binding (TEAD4 IP, immunoblot)” value is listed as “disrupted to a great extent”. The “cytoplasmic localization of the TEAD4 protein” value in assay [4] is on record as “induction of cytoplasmic localization”. Moreover, the “nuclear TEAD4 presence” value in assay [4] is “didn't diminish”. Besides, the cellular proliferation sensitivity result in assay [6] (U20S cells expressing GFP alone, low dose) was “didn't display sensitivity”; in assay [6] (U20S cells overexpressing GFP-TEAD4, below 5 uM), “higher sensitivity”. Further, the “TEAD transcriptional target genes expression (RT-PCR)” value in assay [7] was “repression”.
